For assay [1], the system named is Staphylococcus aureus K2378 (overexpresses the efflux pump NorA from a multicopy plasmid). Nature of the assay: Efflux pump inhibition assay with sub-inhibitory ciprofloxacin. The assay is classed as cell-based. To be noted: in the presence of ciprofloxacin 0.25 mg/L (MIC/8).
The subject of assay [2] is S. pneumoniae ATCC 6303. Nature of the assay: MIC microdilution (Table I-1). As to conditions: Streptococcus pneumoniae, ATCC6303, read after 18 hours, read-out: MIC. The assay is classed as cell-based, Streptococcus pneumoniae. As for the experimental part:
(§1) The microdilution method recommended by the Clinical and Laboratory Standard Institute [M07-A8, Vol. 29, N^o 2] was used. The activity of indolic compounds was tested against 29 bacterial strains belonging to 17 different species and 12 different genera (Staphylococcus, Streptococcus, Enterococcus, Listeria, Bacillus, Haemophilus, Escherichia, Klebsiella, Enterobacter, Serratia, Pseudomonas, and Acinetobacter). Bacterial inocula were prepared in Mueller Hinton broth (MH2, bioMerieux, Marcy L'Etoile, France), supplemented with 10% sheep blood for fastidious species (i.e., Streptococcus pneumoniae and Haemophilus influenzae). They were dispensed in 96 well microtiter plates (5×10^5 CFU/ml of final inoculum). Indolic compounds were added to the wells as to obtain two-fold serial concentrations (0.50-128 mg/L of final concentrations). Plates were incubated at 37° C. in ambient air, or at 37° C. in 5% CO2 enriched atmosphere for fastidious species. […] Drug-free cultures served as growth controls. Cultures receiving gentamicin, ciprofloxacin or cefotaxime served as positive controls.
Background: Dilution methods test growth across graded concentrations, often in twofold steps.

Assay [3] relates to KB (human mouth carcinoma). The experiment in a line: In vitro cytotoxicity. As to conditions: KB. The format is cell-based. As for the experimental part: (§2) In vitro cytotoxicity was assayed on three cell lines—KB (human mouth carcinoma), MCR5 (human lung fibroblast) and HCT116 (human colon tumor). Results are presented in table III as % of cellular growth inhibition in presence of 10^−5 M and 10^−6 M of the tested bis-indolic derivatives.

Assay [4] has as its system MRC5 (human lung fibroblast). Nature of the assay: In vitro cytotoxicity. The assay is classed as cell-based. The protocol: as §2
The subject of assay [5] is HCT116 (human colon tumor). The experiment in a line: In vitro cytotoxicity. The assay is classed as cell-based. The protocol: as §2
The subject of assay [6] is Bacillus subtilis CIP 5262. The experiment in a line: MIC microdilution (Table I-1). As to conditions: CIP5262, read after 18 hours, read-out: MIC. The format is cell-based. An outline of the steps: (§3)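 CLSI (M07-A8) broth microdilution in Mueller Hinton broth at a final inoculum of 5×10^5 CFU/ml. Compounds were tested as two-fold serial dilutions across 0.50-128 mg/L final concentrations, and plates were incubated at 37° C. in ambient air.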

In assay [7] the test system is Enterobacter cloacae ATCC 13047. Nature of the assay: MIC microdilution (Table I-1). The format is cell-based. As to conditions: ATCC13047, read after 18 hours. An outline of the steps:
as §3

Assay [8] deals with Listeria innocua CIP 80.11. The experiment in a line: MIC microdilution (Table I-1). The assay is classed as cell-based. To be noted: CIP80, read after 18 hours, read-out: MIC. An outline of the steps:
as §3

Assay [9] relates to Acinetobacter baumanii ATCC 19606. Nature of the assay: MIC microdilution (Table I-1). The assay is classed as cell-based. To be noted: Acinetobacter baumannii, ATCC19606, read after 18 hours. An outline of the steps: as §3
Assay [10] has as its system S. epidermidis CIP 81.55. The experiment in a line: MIC microdilution (Table I-1). The format is cell-based, Staphylococcus epidermidis. To be noted: Staphylococcus epidermidis, CIP81, read after 18 hours, read-out: MIC. As for the experimental part: as §1
Assay [11] relates to S. epidermidis ATCC 12228. The experiment in a line: MIC microdilution (Table I-1). The format is cell-based, Staphylococcus epidermidis. To be noted: Staphylococcus epidermidis, ATCC12228, read after 18 hours, read-out: MIC. As for the experimental part:
as §1

The test system of assay [12] is S. epidermidis CIP 103627. Nature of the assay: MIC microdilution (Table I-1). The assay is classed as cell-based, Staphylococcus epidermidis. To be noted: Staphylococcus epidermidis, CIP103627, read after 18 hours, read-out: MIC. The protocol: as §1

SMILES strings stand for the structures. A value given as a limit tells only on which side of the number the result lay.

Broadly, the MIC is the lowest concentration found to suppress growth. In general, inhibition refers to the change of the read-out against control, counted positive when it falls. As for `CC(C)(C)OC(=O)N1CCN(C(=O)C(=O)c2c[nH]c3ccccc23)C(c2c[nH]c3ccccc23)C1` (stereo not drawn) [Compound 6c, tert-Butyl 4-(2-(1H-indol-3-yl)-2-oxoacetyl)-3-(1H-indol-3-yl)piperazine-1-carboxylate], the “CMI, mg/L (Ciprofloxacin concentration, mg/L)” value in [1] is listed as 16 (0.25) mg/L. For the same molecule, the MIC in assay [2], in [6], in assay [7], in assay [8], in assay [9] and in [10] was greater than 128 µg/mL in each case. Further, the MIC in [11] and in [12] was greater than 128 µg/mL throughout. The inhibition at 10 µM was 66 ± 8% in assay [3] (10^−5 M, read-out: % of cellular growth inhibition); 6 ± 16% in [4] (MRC5, 10^−5 M, read-out: % of cellular growth inhibition); 53 ± 3% in [5] (HCT-116, HCT116, 10^−5 M, read-out: % of cellular growth inhibition). In addition, the inhibition at 1 µM was 0% in assay [3] (10^−6 M, read-out: % of cellular growth inhibition (converted)); 0% in [4] (MRC5, 10^−6 M, read-out: % of cellular growth inhibition (converted)); 8% in assay [5] (HCT-116, HCT116, 10^−6 M, read-out: % of cellular growth inhibition (converted)).

The record behind these values is patent US9321722B2, “Bis-indolic derivatives, their uses in particular as antibacterials” (UNIVERSITE JOSEPH FOURIER, priority 2011, dated 2016).
